According to patent publication US20250230193A1, “CYCLIC COMPOUND HAVING SELECTIVE KRAS INHIBITORY EFFECT ON HRAS AND NRAS” (CHUGAI SEIYAKU KABUSHIKI KAISHA, priority 2022, published 2025):

Legend:
[1] = molecular target: GDP-bound NRAS wild-type protein (Homo sapiens, UniProt P01111); assay: Binding to NRAS by surface plasmon resonance (SPR), Single Cycle Kinetics; conditions: KD ratio, GDP-bound NRAS wild-type vs GDP-bound KRAS wild-type, SPR
[2] = molecular target: GDP-bound HRAS wild-type protein (Homo sapiens, UniProt P01112); assay: Binding to HRAS by surface plasmon resonance (SPR), Single Cycle Kinetics; conditions: KD ratio, GDP-bound HRAS wild-type vs GDP-bound KRAS wild-type, SPR
Sequence of GDP-bound HRAS wild-type protein (P01112 whole entry): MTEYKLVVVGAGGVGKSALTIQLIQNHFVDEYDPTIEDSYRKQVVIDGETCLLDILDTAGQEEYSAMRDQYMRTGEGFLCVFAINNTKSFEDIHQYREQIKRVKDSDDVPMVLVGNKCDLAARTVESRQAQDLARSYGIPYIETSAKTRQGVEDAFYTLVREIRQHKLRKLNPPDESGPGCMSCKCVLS

Sequence of GDP-bound NRAS wild-type protein (P01111 whole entry): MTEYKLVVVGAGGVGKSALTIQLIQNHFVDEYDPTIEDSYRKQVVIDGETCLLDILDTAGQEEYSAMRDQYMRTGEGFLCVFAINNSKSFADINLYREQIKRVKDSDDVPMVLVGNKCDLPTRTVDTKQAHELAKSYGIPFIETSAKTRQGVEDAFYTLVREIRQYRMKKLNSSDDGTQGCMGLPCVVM

Structure (SMILES) | NRAS/KRAS (ratio of KD value with respect to NRAS to KD value with respect to KRAS) [1] | HRAS/KRAS (ratio of KD value with respect to HRAS to KD value with respect to KRAS) [2]
CC[C@H](C)[C@@H]1NC(=O)[C@H](CC(C)C)N(C)C(=O)C[C@@H](C(=O)N2CCOCC2)N(C)C(=O)[C@H](C2CCCC2)N(C)C(=O)C2(CCC2)NC(=O)[C@@H]2C[C@@H](OCC(F)F)CN2C(=O)[C@H](CCc2cc(F)c(C(F)(F)F)c(F)c2)NC(=O)CN(C)C(=O)[C@H](Cc2ccc(C(F)(F)F)cc2)N2CCCC[C@@H](C2=O)N(C)C(=O)CN(C)C1=O [PP1002] | B (a compound having 3 or more and less than 10 is denoted as B) | B (a compound having 3 or more and less than 10 is denoted as B)
CC[C@H](C)[C@@H]1NC(=O)[C@H](CC(C)C)N(C)C(=O)C[C@@H](C(=O)N2CCOCC2)N(C)C(=O)[C@H](C2CCCC2)N(C)C(=O)C2(CCC2)NC(=O)[C@@H]2C[C@@H](OC)CN2C(=O)[C@H](CCc2cc(F)c(C(F)(F)F)c(F)c2)NC(=O)CN(C)C(=O)[C@H](Cc2ccc(C(F)(F)F)cc2)N2CCCC[C@@H](C2=O)N(C)C(=O)CN(C)C1=O [PP1003] | C (A compound having a KD ratio of 0.1 or more and less than 3 is denoted as C) | B (a compound having 3 or more and less than 10 is denoted as B)
CCCCO[C@@H]1C[C@H]2C(=O)NC3(CCC3)C(=O)N(C)[C@@H](C3CCCC3)C(=O)N(C)[C@H](C(=O)N3CCOCC3)CC(=O)N(C)[C@@H](CC(C)C)C(=O)N[C@@H]([C@@H](C)CC)C(=O)N(C)CC(=O)N(C)[C@H]3CCCCCN(C3=O)[C@@H](Cc3ccc(C(F)(F)F)cc3)C(=O)N(C)CC(=O)N[C@@H](CCc3cc(F)c(C(F)(F)F)c(F)c3)C(=O)N2C1 [PP1004] | B (a compound having 3 or more and less than 10 is denoted as B) | B (a compound having 3 or more and less than 10 is denoted as B)
CC[C@H](C)[C@@H]1NC(=O)[C@H](CC(C)C)N(C)C(=O)C[C@@H](C(=O)N2CCOCC2)N(C)C(=O)[C@H](C2CCCC2)N(C)C(=O)C2(CCC2)NC(=O)[C@@H]2C[C@@H](OCC3CC3)CN2C(=O)[C@H](CCc2cc(F)c(C(F)(F)F)c(F)c2)NC(=O)CN(C)C(=O)[C@H](Cc2ccc(C(F)(F)F)cc2)N2CCCCC[C@@H](C2=O)N(C)C(=O)CN(C)C1=O [PP1005] | A (a compound having 10 or more and less than 20 is denoted as A) | A (a compound having 10 or more and less than 20 is denoted as A)
CC[C@H](C)[C@@H]1NC(=O)[C@H](CC(C)C)N(C)C(=O)C[C@@H](C(=O)N2CCOCC2)N(C)C(=O)[C@H](C2CCCC2)N(C)C(=O)C2(CCC2)NC(=O)[C@@H]2C[C@@H](OCC(F)F)CN2C(=O)[C@H](CCc2cc(F)c(C(F)(F)F)c(F)c2)NC(=O)CN(C)C(=O)[C@H](Cc2ccc(C(F)(F)F)cc2)N2CCCCC[C@@H](C2=O)N(C)C(=O)CN(C)C1=O [PP1006] | B (a compound having 3 or more and less than 10 is denoted as B) | B (a compound having 3 or more and less than 10 is denoted as B)
CCCCO[C@H]1CCN2C(=O)[C@H](CCc3cc(F)c(C(F)(F)F)c(F)c3)NC(=O)CN(C)C(=O)[C@H](Cc3ccc(C(F)(F)F)cc3)N3CCCCC[C@@H](C3=O)N(C)C(=O)CN(C)C(=O)[C@H]([C@@H](C)CC)NC(=O)[C@H](CC(C)C)N(C)C(=O)C[C@@H](C(=O)N3CCOCC3)N(C)C(=O)[C@H](C3CCCC3)N(C)C(=O)C3(CCC3)NC(=O)[C@H]12 [PP1009] | B (a compound having 3 or more and less than 10 is denoted as B) | B (a compound having 3 or more and less than 10 is denoted as B)
CC[C@H](C)[C@@H]1NC(=O)[C@H](CC(C)C)N(C)C(=O)C[C@@H](C(=O)N2CCOCC2)N(C)C(=O)[C@H](C2CCCC2)N(C)C(=O)C2(CCC2)NC(=O)[C@@H]2[C@@H](OCC3CC3)CCN2C(=O)[C@H](CCc2cc(F)c(C(F)(F)F)c(F)c2)NC(=O)CN(C)C(=O)[C@H](Cc2ccc(C(F)(F)F)cc2)N2CCCCC[C@@H](C2=O)N(C)C(=O)CN(C)C1=O [PP1010] | B (a compound having 3 or more and less than 10 is denoted as B) | B (a compound having 3 or more and less than 10 is denoted as B)
CC[C@H](C)[C@@H]1NC(=O)[C@H](CC(C)C)N(C)C(=O)C[C@@H](C(=O)N2CCOCC2)N(C)C(=O)[C@H](C2CCCC2)N(C)C(=O)C2(CCC2)NC(=O)[C@@H]2[C@@H](OCC3CCCC3)CCN2C(=O)[C@H](CCc2cc(F)c(C(F)(F)F)c(F)c2)NC(=O)CN(C)C(=O)[C@H](Cc2ccc(C(F)(F)F)cc2)N2CCCCC[C@@H](C2=O)N(C)C(=O)CN(C)C1=O [PP1011] | A (a compound having 10 or more and less than 20 is denoted as A) | B (a compound having 3 or more and less than 10 is denoted as B)
CC[C@H](C)[C@@H]1NC(=O)[C@H](CC(C)C)N(C)C(=O)C[C@@H](C(=O)N2CCOCC2)N(C)C(=O)[C@H](C2CCCC2)N(C)C(=O)C2(CCC2)NC(=O)[C@@H]2[C@@H](OCC(F)F)CCN2C(=O)[C@H](CCc2cc(F)c(C(F)(F)F)c(F)c2)NC(=O)CN(C)C(=O)[C@H](Cc2ccc(C(F)(F)F)cc2)N2CCCCC[C@@H](C2=O)N(C)C(=O)CN(C)C1=O [PP1012] | A (a compound having 10 or more and less than 20 is denoted as A) | B (a compound having 3 or more and less than 10 is denoted as B)
CCCCO[C@@H]1C[C@H]2C(=O)NC3(CCC3)C(=O)N(C)[C@@H](C3CCCC3)C(=O)N(C)[C@H](C(=O)N3CCOCC3)CC(=O)N(C)[C@@H](CC(C)C)C(=O)N[C@@H]([C@@H](C)CC)C(=O)N(C)CC(=O)N(C)[C@H]3CCCCN(C3=O)[C@@H](Cc3ccc(C(F)(F)F)cc3)C(=O)N(C)CC(=O)N[C@@H](CCc3cc(F)c(C(F)(F)F)c(F)c3)C(=O)N2C1 [PP1013] | C (A compound having a KD ratio of 0.1 or more and less than 3 is denoted as C) | C (A compound having a KD ratio of 0.1 or more and less than 3 is denoted as C)
CC[C@H](C)[C@@H]1NC(=O)[C@H](CC(C)C)N(C)C(=O)C[C@@H](C(=O)N2CCOCC2)N(C)C(=O)[C@H](C2CCCC2)N(C)C(=O)C2(CCC2)NC(=O)[C@@H]2C[C@@H](OCC3CC3)CN2C(=O)[C@H](CCc2cc(F)c(C(F)(F)F)c(F)c2)NC(=O)CN(C)C(=O)[C@H](Cc2ccc(C(F)(F)F)cc2)N2CCCC[C@@H](C2=O)N(C)C(=O)CN(C)C1=O [PP1014] | C (A compound having a KD ratio of 0.1 or more and less than 3 is denoted as C) | C (A compound having a KD ratio of 0.1 or more and less than 3 is denoted as C)
CC[C@H](C)[C@@H]1NC(=O)[C@H](CC(C)C)N(C)C(=O)C[C@@H](C(=O)N2CCOCC2)N(C)C(=O)[C@H](C2CCCC2)N(C)C(=O)C2(CCC2)NC(=O)[C@@H]2C[C@@H](OCC3CCCC3)CN2C(=O)[C@H](CCc2cc(F)c(C(F)(F)F)c(F)c2)NC(=O)CN(C)C(=O)[C@H](Cc2ccc(C(F)(F)F)cc2)N2CCCC[C@@H](C2=O)N(C)C(=O)CN(C)C1=O [PP1015] | C (A compound having a KD ratio of 0.1 or more and less than 3 is denoted as C) | C (A compound having a KD ratio of 0.1 or more and less than 3 is denoted as C)
CC[C@H](C)[C@@H]1NC(=O)[C@H](CC(C)C)N(C)C(=O)C[C@@H](C(=O)N2CCOCC2)N(C)C(=O)[C@H](C2CCCC2)N(C)C(=O)C2(CCC2)NC(=O)[C@@H]2C[C@@H](OC)CN2C(=O)[C@H](CCc2cc(F)c(C(F)(F)F)c(F)c2)NC(=O)CN(C)C(=O)[C@H](Cc2ccc(C(F)(F)F)cc2)N2CCCCC[C@@H](C2=O)N(C)C(=O)CN(C)C1=O [PP1016] | A (a compound having 10 or more and less than 20 is denoted as A) | B (a compound having 3 or more and less than 10 is denoted as B)
CCO[C@@H]1C[C@H]2C(=O)NC3(CCCC3)C(=O)N(C)[C@@H](C3CCCC3)C(=O)N(C)[C@H](C(=O)N(C)C)CC(=O)N(C)[C@@H](CC(C)C)C(=O)N[C@@H]([C@@H](C)CC)C(=O)N(C)CC(=O)N(C)[C@H]3C[C@@H](C)CCN(C3=O)[C@@H](Cc3ccc(C(F)(F)F)cc3)C(=O)N(C)CC(=O)N[C@@H](CCc3cc(F)c(C(F)(F)F)c(F)c3)C(=O)N2C1 [PP1017] | C (A compound having a KD ratio of 0.1 or more and less than 3 is denoted as C) | B (a compound having 3 or more and less than 10 is denoted as B)
CCO[C@@H]1C[C@H]2C(=O)NC3(CCC3)C(=O)N(C)[C@@H](C3CCCC3)C(=O)N(C)[C@H](C(=O)N(C)C)CC(=O)N(C)[C@@H](CC(C)C)C(=O)N[C@@H]([C@@H](C)CC)C(=O)N(C)CC(=O)N(C)[C@H]3C[C@@H](C)CCN(C3=O)[C@@H](Cc3ccc(C(F)(F)F)cc3)C(=O)N(C)CC(=O)N[C@@H](CCc3cc(F)c(C(F)(F)F)c(F)c3)C(=O)N2C1 [PP1018] | C (A compound having a KD ratio of 0.1 or more and less than 3 is denoted as C) | B (a compound having 3 or more and less than 10 is denoted as B)
CCO[C@@H]1C[C@H]2C(=O)NC3(CCC3)C(=O)N(C)[C@@H](C3CCCC3)C(=O)N(C)[C@H](C(=O)N(C)C)CC(=O)N(C)[C@@H](CC(C)C)C(=O)N[C@@H]([C@@H](C)CC)C(=O)N3CC[C@H]3C(=O)N(C)[C@H]3C[C@@H](C)CCN(C3=O)[C@@H](Cc3ccc(C(F)(F)F)cc3)C(=O)N(C)CC(=O)N[C@@H](CCc3cc(F)c(C(F)(F)F)c(F)c3)C(=O)N2C1 [PP1019] | C (A compound having a KD ratio of 0.1 or more and less than 3 is denoted as C) | B (a compound having 3 or more and less than 10 is denoted as B)
